Consider 3 compounds from patent US12144795B2, “Cannabidiol compositions having modified cannabinoid profiles” (priority 2018, dated 2024).

Converted amounts (≈) assume the structure as drawn. Where only a bound is given, the exact number is not on record here.

Data set [1] can be described thus: HPLC method quantifying low levels of D9-THC in stored cannabidiol samples. The note with it: after storage at −16° C. for two years. Format: physicochemical. The method, then: An analytical method using HPLC was developed to determine low levels of delta-9-tetrahydrocannabinol in cannabidiol samples. A Waters XBridge C18 3.5 μm, 3.0×150 mm column was employed and operated at a temperature of 30° C., UV wavelength of 225 nm, and injection size of 20 μL. Mobile Phase A was 0.02% (v/v) acetic acid in H2O, while mobile phase B was 0.02% (v/v) acetic acid in acetonitrile (ACN).
An aliquot of 0.5 mL of a D9-THC reference standard (Cerilliant, 1.0 mg/mL MeOH solution) was diluted in a 500-mL volumetric flask using sample diluent (70/30 Acetonitrile/H2O, v/v). The D9-THC concentration was 0.001 mg/mL in the standard stock solution, which corresponded with 200 ppm of D9-THC as compared to the CBD sample solution (nominal CBD concentration was 5.0 mg/mL).
An Aliquot of 5 mL of THC Stock Standard Solution was diluted in a 100-mL volumetric flask using the sample diluent. The D9-THC concentration was 0.00005 mg/mL in the working standard solution, corresponding with 10 ppm of D9-THC as compared to the CBD sample solution.
About 50 mg of cannabidiol sample was weighed into a 10-mL volumetric flask. The volumetric flask was diluted to volume using sample diluent and mixed well.
A minimum of 6 working standard solutions were injected prior to the sample set. Furthermore, a maximum of 6 injections of CBD sample were injected between bracketing working standard solutions.
The amount of THC in each sample was calculated using the following
For reference, each chromatogram in FIG. 6A through FIG. 6F is shown against a 10 ppm THC working standard. For samples 1, 2, and 3, roughly 50.28 mg, 50.77 mg, and 55.60 mg material was used.

Data set [2] in a line: Quantitative thermodynamic solubility determination at ambient temperature, evaporated solids analyzed by XRPD. In kind it is physicochemical. The settings on record: for solubility: thermodynamic from solid, ambient temperature. The method, then: A quantitative thermodynamic solubility determination was performed on crude cannabidiol obtained via Protocol 2 to aid in the selection of solvents for crystallization experiments. The clear solutions obtained from each solubility determination experiment were evaporated and the obtained solids were analyzed by XRPD.
When the material precipitated as a solid, it was classified as Form A. However, in 11 experiments, the material obtained after evaporation was oil-like in appearance and could not be analyzed by XRPD. When no XRPD record was generated, the field was defined as “Not Applicable” (N/A).

As usually defined, the solubility is the dissolved amount per volume that the medium holds.

As for `C=C(C)[C@@H]1CCC(C)=C[C@H]1c1c(O)cc(CCCCC)cc1O` [Sample 5, Cannabidiol], the “Result (D9-THC in ppm)” value in data set [1] was 21.7 ppm.

As for `C=C(C)[C@@H]1CCC(C)=C[C@H]1c1c(O)cc(CCCCC)cc1O` [Sample 6, Cannabidiol], the “Result (D9-THC in ppm)” value in data set [1] was determined as 7.3 ppm.

In the case of `C=C(C)[C@@H]1CCC(C)=C[C@H]1c1c(O)cc(CCCCC)cc1O` [crude cannabidiol, cannabidiol], the solubility was greater than 100 mg/mL in data set [2] (organic solvent or mixture, 1,2-Dimethoxyethane); greater than 100 mg/mL in data set [2] (organic solvent or mixture, 1-Propanol); greater than 100 mg/mL in data set [2] (organic solvent or mixture, 1.4-Dioxane); greater than 100 mg/mL in data set [2] (organic solvent or mixture, 2-Butanone); greater than 100 mg/mL in data set [2] (organic solvent or mixture, 2-propanol); greater than 100 mg/mL in data set [2] (organic solvent or mixture, Acetone). Moreover, the solubility is greater than 100 mg/mL in data set [2] (organic solvent or mixture, Acetonitrile); greater than 100 mg/mL in data set [2] (organic solvent or mixture, Anisole); greater than 100 mg/mL in data set [2] (organic solvent or mixture, Chloroform); greater than 100 mg/mL in data set [2] (organic solvent or mixture, Cumene); greater than 100 mg/mL in data set [2] (organic solvent or mixture, Cyclohexane); greater than 100 mg/mL in data set [2] (organic solvent or mixture, Dichloromethane). For the same compound, the solubility was greater than 100 mg/mL in data set [2] (organic solvent or mixture, Diethyl ether); greater than 100 mg/mL in data set [2] (organic solvent or mixture, Ethanol); greater than 100 mg/mL in data set [2] (organic solvent or mixture, Ethyl Acetate); greater than 100 mg/mL in data set [2] (organic solvent or mixture, Ethyl Formate); 64.6 mg/mL (≈ 205 mM) in data set [2] (organic solvent or mixture, Heptane); greater than 100 mg/mL in data set [2] (organic solvent or mixture, Isobutanol). Moreover, the solubility in data set [2] (organic solvent or mixture, Isopropyl acetate) was greater than 100 mg/mL; in data set [2] (organic solvent or mixture, Methanol) it was greater than 100 mg/mL; in data set [2] (organic solvent or mixture, Tert-Butyl methyl ether) it was greater than 100 mg/mL; in data set [2] (organic solvent or mixture, Tetrahydrofuran) it was greater than 100 mg/mL; in data set [2] (organic solvent or mixture, Toluene) it was greater than 100 mg/mL; in data set [2] (organic solvent or mixture, p-Xylene), greater than 100 mg/mL. In data set [2] (Water), the solubility is less than 0.13 mg/mL. For the same compound, the XRPD result in data set [2] (solid after evaporation of 1.4-Dioxane solution), in data set [2] (solid after evaporation of 2-Butanone solution), in data set [2] (solid after evaporation of Chloroform solution), in data set [2] (solid after evaporation of Cyclohexane solution), in data set [2] (solid after evaporation of Dichloromethane solution) and in data set [2] (solid after evaporation of Diethyl ether solution) was “Form A” in each case. Moreover, the XRPD result in data set [2] (solid after evaporation of Ethyl Acetate solution), in data set [2] (solid after evaporation of Ethyl Formate solution), in data set [2] (solid after evaporation of Heptane solution), in data set [2] (solid after evaporation of Isopropyl acetate solution), in data set [2] (solid after evaporation of Tert-Butyl methyl ether solution) and in data set [2] (solid after evaporation of Tetrahydrofuran solution) was “Form A” throughout. In addition, the XRPD entry in data set [2] (solid after evaporation of Toluene solution) and in data set [2] (solid after evaporation of Water solution) was “Form A” in each case.
